Consider eight molecules from DBAASP.

Values after ≈ are worked out from the molar mass of the structure shown.

Test systems include Escherichia coli 804; Escherichia coli 780; Staphylococcus aureus 75; Escherichia coli W3110; Escherichia coli UB1005; Candida albicans.
Holding throughout (assay): ≥ marks a high value that may be exact or a test limit, other limits are often not marked, values filed in µg/mL are converted to µM
Assay [1] concerns Staphylococcus epidermidis ATCC 12228.
The subject of assay [2] is Staphylococcus aureus ATCC 29213.
In assay [3] the test system is Bacillus subtilis ATCC 23857.
Assay [4] concerns Acinetobacter baumannii 97830.
For assay [5], the system named is Klebsiella pneumoniae ATCC 700603.
In assay [6] the test system is Pseudomonas aeruginosa 73.
Assay [7] deals with Acinetobacter baumannii 9931.
Assay [8] deals with Acinetobacter baumannii ATCC 19606.
Assay [9] concerns Staphylococcus aureus 113.
For assay [10], the system named is Pseudomonas aeruginosa 50.
For assay [11], the system named is Pseudomonas aeruginosa ATCC 27853.
For assay [12], the system named is Pseudomonas aeruginosa ATCC 9027.
Assay [13] concerns Streptococcus pneumoniae ATCC 49619.
Assay [14] relates to Bacillus subtilis ATCC 9372.
In assay [15] the test system is Escherichia coli ATCC 25922.
For assay [16], the system named is Salmonella typhimurium ATCC 50013.
For assay [17], the system named is Staphylococcus aureus ATCC 25923.
Assay [18] relates to Shigella dysenteriae ATCC 51302.
Assay [19] relates to Klebsiella pneumoniae ATCC BAA-1705.
Assay [20] deals with Staphylococcus epidermidis.
Assay [21] has as its system Pseudomonas aeruginosa 253.
The test system of assay [22] is Pseudomonas aeruginosa PAO1.
Assay [23] relates to Pseudomonas aeruginosa H103.
For assay [24], the system named is Pseudomonas aeruginosa 910.
The test system of assay [25] is Salmonella enterica serovar Typhimurium.
Assay [26] concerns Enterococcus faecalis ATCC 29212.
In assay [27] the test system is Pseudomonas aeruginosa 919.

On to `C[C@H](N)C(=O)N[C@@H](Cc1c[nH]c2ccccc12)C(=O)N[C@@H](CCCN=C(N)N)C(=O)N[C@@H](Cc1c[nH]c2ccccc12)C(=O)N[C@@H](Cc1c[nH]c2ccccc12)C(=O)N[C@@H](Cc1c[nH]c2ccccc12)C(=O)N[C@@H](CCCN=C(N)N)C(=O)N[C@@H](Cc1c[nH]c2ccccc12)C(=O)N[C@@H](C)C(N)=O` [AWRWWWRWA], for which the MIC (in general, the smallest concentration in the dilution series that meets the test's criterion for growth inhibition) is 8 µM (≈ 11.2 µg/mL) with Escherichia coli 804; 8 µM (≈ 11.2 µg/mL) in assay [1]; 8 µM (≈ 11.2 µg/mL) in assay [2]; 16 µM (≈ 22.4 µg/mL) in the assay with Escherichia coli 780; 8 µM (≈ 11.2 µg/mL) in assay [3]; 8 µM (≈ 11.2 µg/mL) in [4]. Besides, the MIC in assay [5] was 8 µM (≈ 11.2 µg/mL); in [6] it was not below 32 µM; in assay [7] it was not below 32 µM; in the assay on Staphylococcus aureus 75 it was 4 µM (≈ 5.61 µg/mL); in [8], 32 µM (≈ 44.9 µg/mL); in [9], 8 µM (≈ 11.2 µg/mL). Further, the values for the MIC in assay [10], in assay [11] and in assay [12] were not below 32 µM, 32 µM (≈ 44.9 µg/mL) and 32 µM (≈ 44.9 µg/mL), respectively.
Regarding `NC(=O)[C@H](Cc1ccccc1)NC(=O)[C@H](CCCN=C(N)N)NC(=O)[C@H](CCCN=C(N)N)NC(=O)[C@H](Cc1c[nH]c2ccccc12)NC(=O)[C@H](Cc1c[nH]c2ccccc12)NC(=O)[C@H](Cc1c[nH]c2ccccc12)NC(=O)[C@H](CCCN=C(N)N)NC(=O)[C@H](CCCN=C(N)N)NC(=O)[C@@H](N)Cc1ccccc1` [FRRWWWRRF], the MIC in the assay with Escherichia coli 804 worked out at 16 µM (≈ 23.9 µg/mL); in assay [1] it was 8 µM (≈ 12 µg/mL); in assay [2] it was 4 µM (≈ 5.98 µg/mL); in the assay on Escherichia coli 780, 16 µM (≈ 23.9 µg/mL); in assay [3], 2 µM (≈ 2.99 µg/mL); in assay [4] it was 8 µM (≈ 12 µg/mL). In addition, the MIC in assay [5] was 16 µM (≈ 23.9 µg/mL); in [6], 16 µM (≈ 23.9 µg/mL); in [7] it was 16 µM (≈ 23.9 µg/mL); with Staphylococcus aureus 75 it was 4 µM (≈ 5.98 µg/mL); in [8] it was 16 µM (≈ 23.9 µg/mL); in assay [9] it was 8 µM (≈ 12 µg/mL). The results for the MIC in [10], in [11] and in assay [12] were 4 µM (≈ 5.98 µg/mL), 4 µM (≈ 5.98 µg/mL) and 8 µM (≈ 12 µg/mL), respectively.
For `CC(C)C[C@H](NC(=O)CN)C(=O)N[C@@H](CO)C(=O)N[C@@H](CCCN=C(N)N)C(=O)N[C@@H](CC(C)C)C(=O)N[C@@H](Cc1ccccc1)C(=O)N[C@H](C(=O)N[C@@H](C)C(=O)N[C@@H](CC(C)C)C(=O)N[C@@H](CCCCN)C(=O)O)[C@@H](C)O` [GLSRLFTALK], the MIC was not below 57.9 µM in assay [13]; 14.5 µM (≈ 16 µg/mL) in [14]; 29 µM (≈ 32 µg/mL) in assay [15]; 29 µM (≈ 32 µg/mL) in [16]; 57.9 µM (≈ 64 µg/mL) in assay [11]; 14.5 µM (≈ 16 µg/mL) in assay [17]. In addition, the MIC in assay [18] is not below 232 µM.
Turning to `CC[C@H](C)[C@H](N)C(=O)N[C@@H](CC(C)C)C(=O)N[C@H](C(=O)N[C@@H](C)C(=O)N[C@@H](CS)C(=O)N[C@@H](Cc1c[nH]c2ccccc12)C(=O)NCC(=O)N[C@@H](CC(C)C)C(=O)N[C@@H](CCCCN)C(=O)N[C@@H](CC(C)C)C(=O)N[C@@H](CC(C)C)C(=O)N[C@@H](CCCN=C(N)N)C(=O)N[C@@H](Cc1ccc(O)cc1)C(=O)N[C@@H](CCCN=C(N)N)C(=O)N[C@@H](CCCN=C(N)N)C(=O)N[C@H](C(=O)N[C@@H](Cc1ccc(O)cc1)C(=O)O)[C@@H](C)CC)[C@@H](C)CC` [ILIACWGLKLLRYRRIY], the MIC in assay [19] is not below 128 µM; in the assay with Escherichia coli W3110 it was 4 µM (≈ 8.6 µg/mL).
`CC[C@H](C)[C@H](N)C(=O)N[C@@H](CCCN=C(N)N)C(=O)N[C@@H](Cc1c[nH]c2ccccc12)C(=O)N[C@@H](Cc1c[nH]c2ccccc12)C(=O)N[C@@H](Cc1c[nH]c2ccccc12)C(=O)N[C@@H](CCCN=C(N)N)C(=O)N[C@H](C(N)=O)[C@@H](C)CC` [IRWWWRI]: the MIC with Escherichia coli 804 was 16 µM (≈ 17.8 µg/mL); in [1], 8 µM (≈ 8.91 µg/mL); in [2], 4 µM (≈ 4.46 µg/mL); against Escherichia coli 780 it was 16 µM (≈ 17.8 µg/mL); in [3], 8 µM (≈ 8.91 µg/mL); in assay [4], not below 32 µM. For the same molecule, the MIC in [5] is 32 µM (≈ 35.7 µg/mL); in assay [6], not below 32 µM; in [7] it was not below 32 µM; against Staphylococcus aureus 75 it was 8 µM (≈ 8.91 µg/mL); in assay [8] it was 64 µM (≈ 71.3 µg/mL); in assay [9], 8 µM (≈ 8.91 µg/mL). The results for the MIC in assay [10], in [11] and in assay [12] were not below 32 µM, 16 µM (≈ 17.8 µg/mL) and 32 µM (≈ 35.7 µg/mL), respectively.
Consider `CC[C@H](C)[C@H](N)C(=O)N[C@@H](Cc1c[nH]c2ccccc12)C(=O)N[C@@H](Cc1c[nH]c2ccccc12)C(=O)N[C@@H](C)C(=O)N[C@@H](CCCCN)C(=O)N[C@@H](Cc1c[nH]c2ccccc12)C(=O)NCC(=O)N[C@@H](CC(C)C)C(=O)N[C@@H](CC(=O)O)C(=O)N[C@@H](CC(C)C)C(=O)N[C@@H](CC(C)C)C(=O)N[C@@H](CCCN=C(N)N)C(=O)N[C@@H](Cc1ccc(O)cc1)C(=O)N[C@@H](CCCN=C(N)N)C(=O)N[C@@H](CCCN=C(N)N)C(=O)N[C@H](C(=O)N[C@@H](Cc1c[nH]c2ccccc12)C(=O)O)[C@@H](C)CC` [IWWAKWGLDLLRYRRIW], for which the MIC is not below 128 µM in assay [19] and not below 64 µM against Escherichia coli W3110.
Regarding `CC[C@H](C)[C@H](NC(=O)[C@H](CCCN=C(N)N)NC(=O)[C@H](CCCN=C(N)N)NC(=O)[C@H](CC(C)C)NC(=O)[C@@H](N)CCCN=C(N)N)C(=O)N[C@H](C(=O)N[C@H](C(=O)N[C@H](C(=O)N[C@@H](CCCN=C(N)N)C(=O)N[C@H](C(=O)N[C@@H](C)C(=O)N[C@@H](CCCN=C(N)N)C(=O)O)C(C)C)[C@@H](C)CC)C(C)C)C(C)C` [RLRRIVVIRVAR], the MIC was 1.33 µM (≈ 2 µg/mL) in assay [20]; 16 µM (≈ 24.1 µg/mL) in assay [21]; 2.65 µM (≈ 4 µg/mL) against Escherichia coli UB1005; 16 µM (≈ 24.1 µg/mL) in assay [22]; 5.31 µM (≈ 8 µg/mL) in assay [23]; not below 32 µM in [24]. The MIC was 10.6 µM (≈ 16 µg/mL) in the assay on Candida albicans; 5.31 µM (≈ 8 µg/mL) in assay [25]; 5.31 µM (≈ 8 µg/mL) in assay [26]; 5.31 µM (≈ 8 µg/mL) in assay [17]; 16 µM (≈ 24.1 µg/mL) in [27].
For `CC[C@H](C)[C@H](NC(=O)[C@H](CCCCN)NC(=O)[C@H](CCCCN)NC(=O)[C@H](Cc1c[nH]c2ccccc12)NC(=O)[C@H](CCCCN)NC(=O)[C@H](Cc1c[nH]c2ccccc12)NC(=O)[C@H](CC(C)C)NC(=O)[C@H](CCCCN)NC(=O)[C@H](CC(C)C)NC(=O)CNC(=O)[C@H](Cc1c[nH]c2ccccc12)NC(=O)[C@H](CCCCN)NC(=O)[C@H](C)NC(=O)[C@H](Cc1c[nH]c2ccccc12)NC(=O)[C@H](CCCN=C(N)N)NC(=O)[C@@H](N)Cc1c[nH]c2ccccc12)C(=O)N[C@@H](Cc1ccc(O)cc1)C(=O)O` [WRWAKWGLKLWKWKKIY], the MIC is 16 µM (≈ 38 µg/mL) in assay [19] and 2 µM (≈ 4.75 µg/mL) in the assay with Escherichia coli W3110.
